Legend:
bacteria in plaque = assay: Antibacterial test of 1,2,3-butanetriol: growth of cultured plaque bacteria, absorption at 600 nm; type: cell-based, oral bacteria; details: FIG. 2
Experimental: Subsequently, to examine the effect of inhibiting bacterial activity in plaque, bacterial strains were prepared as follows. First, plaque was collected from three research participants, and was cultured in a BHI medium (Bovine Heart Infusion 4 g/160 ml distilled water-DDW) with 1 wt. % sucrose added for 24 hours. From the above cultured strain, gDNA was extracted, and the bacteria were identified through PCR. BHI medium (Bovine Heart Infusion 4 g/160 ml distilled water-DDW) with 1wt. % sucrose added was prepared and sterilized in a high-temperature and high-pressure autoclave. Then, 1,2, 3-butanetriol (1,2,3-BT) was dispensed to each concentration, and a 96-well microplate containing 180 μl of the culture solution was prepared. Here, 20 μl of the culture solution in which the bacteria in plaque prepared above was proliferated was dispensed per well. This microplate was placed in a Biotek Synergy 2 microplate reader, the temperature was adjusted to 37° C., and the absorption rate was measured at 600 nm.

human fibroblasts = assay: Cytotoxicity test: culture viability of human fibroblasts (Cell Counting Kit-8); type: cell-based; details: 48 hours treatment, FIG. 1
Experimental: First, to examine the biotoxicity of 1,2,3-butanetriol, culture survival experiments of human fibroblasts according to the concentration change of 1,2,3-butanetriol were conducted.
The initial seeding density was 5000 cells/well based on 96 wells, and the culture conditions were as follows:
Dulbecco's Modified Eagle Medium (DMEM)+Fetal Bovine Serum (FBS) 10%; 37° C., 5% CO2; and 12 hours after seeding, 1,2,3-butanetriol was treated at different concentrations to determine cytotoxicity, and after 48 hours of 1,2,3-butanetriol treatment, Dojindo Cell Counting Kit-8 was dispensed at a rate of 10 μl per well and incubated at 37° C. for 2 hours, then cell viability was measured at 450 nm Absorbance.
FIG. 1 is a graph illustrating the culture viability of human fibroblasts according to the concentration change of 1, 2,3-butanetriol, and the horizontal axis of FIG. 1 indicates the concentration of the treated 1,2,3-butanetriol in an mM unit.

[1] = tested on: bacteria in plaque (species of Table 1); assay: Antibacterial test of 1,2,3-butanetriol: gDNA extraction and PCR per bacterial species; type: cell-based, oral bacteria; details: PCR of gDNA after butanetriol treatment, FIG. 3
Source text: From the above cultured strain, gDNA was extracted, and the bacteria were identified through PCR. [table] Separately from the absorption rate measurement, gDNA was extracted from the well microplate after treatment with butanetriol, and the results identified by PCR are shown in FIG. 3.

Compound: CC(O)C(O)CO (racemic) [1,2,3-butanetriol]
- effect of inhibiting bacterial growth (at least) (bacteria in plaque; 12 hours after culturing, compared to no 1,2,3-butanetriol treatment, lowest effect): at least 10%
- effect of inhibiting bacterial growth (maximum) (bacteria in plaque; 12 hours after culturing, compared to no 1,2,3-butanetriol treatment, maximum effect): ≥ 50%
- bacterial growth (bacteria in plaque; plaque bacteria in BHI medium with 1 wt. % sucrose, 37° C.): significantly effectively inhibited
- cell viability (human fibroblasts; concentration of about 12.5 mM or less): not significantly reduced
- cell viability (human fibroblasts; concentration of about 25 mM): about 50%
- growth inhibitory effect on each bacterial species [1]: clearly identified
